Tests used:
[1] = Precipitation of probe in the aqueous crosslinking reaction; format: physicochemical; details: aqueous binding reaction; SPB-AAD 125 μM (FIG. 7 lanes 4, 9); SPB-PEG3-AAD 100 μM (FIG. 8C lanes 2, 6)
Protocol: The robust stability of these complexes under strong denaturing conditions (2% SDS and boiling for 10 min) is consistent with the covalent nature of the crosslinking reaction as designed in BFPX. […] As the probe concentration increased, more crosslinked protein/DNA complexes were formed, and the multiple bands likely represented protein-DNA complexes with various degrees of crosslinking, because multiple SPB-AAD molecules could bind the flanking region of the DNA binding sites and engage crosslinking reactions with the protein. At high probe concentrations (lane 5 and lane 10), the complexes become more uniform, likely due to the saturation binding of the BFPX probe to DNA.
For the BFPX probe SPB-PEG3-AAD, when the probe concentration was sufficiently high (lane 3 and lane 7 of FIG. 8C), the crosslinking efficiency was more than 90% for the MEF2/DNA complex based on the DNA signal (comparing lane 3 and lane 1 in the 5FAM gel, the free DNA in lane 3 was nearly all gone as compared the strong band in lane 1). This is consistent with the protein signal (compare lane 3 and lane 1 in the CCB-250 stained gel, the free protein in lane 3 was very faint as compared with the strong band in lane 1).

DNA binding by NFAT1 = target: T1, DNA binding by NFAT1 (Homo sapiens, UniProt Q13469); experiment: Native EMSA of the effect on DNA binding by NFAT1; format: biochemical; details: FIG. 12C; increasing concentrations; probes with UV 365 nm 15 min; compared to control lane 3
T1 construct: human NFAT1 protein (residue 399-676, NFAT1-DBD)
T1 sequence (Q13469 399-676): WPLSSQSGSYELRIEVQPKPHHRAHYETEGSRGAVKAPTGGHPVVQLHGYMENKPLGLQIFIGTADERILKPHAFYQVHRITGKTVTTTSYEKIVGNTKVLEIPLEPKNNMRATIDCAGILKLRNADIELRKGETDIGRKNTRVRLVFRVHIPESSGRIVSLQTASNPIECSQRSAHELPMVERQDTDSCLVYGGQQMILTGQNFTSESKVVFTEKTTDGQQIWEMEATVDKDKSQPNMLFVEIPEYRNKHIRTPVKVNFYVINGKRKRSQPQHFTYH
Protocol: All binding reactions contain 10 μM 27 mer dsDNA (5′6-FAM labeled) with a NFAT-binding site, and various combinations of NFAT1 protein (14 μM), FA (1% v/v), 4AMT-LC-SDA (20 μM), with or without UV illumination (365 nm, LED, 30 Watt, sample distance 2 cm, exposure time 15 min at 4 degree C.). 10 μl of the binding reaction is run on a 10% PAGE 0.5×TBE gel. The same gel was visualized by FAM fluorescence for DNA (top) and by Coomassie blue stain for protein (bottom). The higher smearing bands in lane 3, 8, 9, and 10 are most likely non-specific protein complexes often seen when an excessive amount of protein is used to ensure all DNA is bound.
The binding reactions were performed in a buffer of 20 mM Hepes pH 7.6, 150 mM NaCl, 1 mM DTT, 12% glycerol. Typically protein and DNA are mixed to bind at room temperature for 30 min, followed by addition of BFPX probes for an additional 15 min and then UV illumination. In the case of FA treatment, the reaction time is 10 min at room temperature and then quenched by 250 mM glycine. When included (as indicated by a positive sign), the binding reaction contains 10 μM 27 mer dsDNA (Cy5-labeled) with a NFAT-binding site (the antigen receptor response element 2, ARRE2, from the IL-2 promoter, 5′-Cy5-[sequence]-3′ (SEQ ID NO: 2), the complementary strand is not labeled), 24 μM of the DNA binding domain (DBD) of human NFAT1 protein (residue 399-676, NFAT1-DBD). The UV illumination (as indicated by a positive sign) was carried out using a LED Chip (21.4 mm×21.4 mm, 365-370 nm, 30 Watt, sample distance 2 cm, exposure time 2-15 min at 4 degree C., here the exposure time is 15 min). Half of the binding reaction (7.5 μl) was run on a 10% PAGE 0.5×TBE gel and visualized by Cy5 fluorescence on DNA. The small amount of single stranded DNA is due to incomplete annealing. The higher smearing bands are most likely non-specific protein complexes. Neither of these experimental imperfections affected the main conclusion of this experiment because the double stranded-DNA bands and the specific NFAT-DNA complex bands (the middle sharp bands) are well defined and can be monitored without the interference of the other bands.
The presence of both DNA and protein in the same shifted band can be checked by the FAM fluorescence signal (top) and Coomassie stain (bottom), respectively (free NFAT is positively charged and not observable under the EMSA condition).

[2] = target: T2, FOXP3 covalently linked to genomic DNA in HEK293T cells (Homo sapiens, UniProt Q9BZS1); experiment: TRIzol extraction of genomic DNA from BFPX-treated HEK293T cells, Benzonase digestion, anti-FLAG western blot; format: cell-based; details: probe 100 μM + UV (lanes 4 and 5) vs controls (lane 1-3)
T2 construct: AVI tag (N); TEV site (N); expressed in transfected cells; host or cells: HEK293T
T2 sequence (Q9BZS1 1-431): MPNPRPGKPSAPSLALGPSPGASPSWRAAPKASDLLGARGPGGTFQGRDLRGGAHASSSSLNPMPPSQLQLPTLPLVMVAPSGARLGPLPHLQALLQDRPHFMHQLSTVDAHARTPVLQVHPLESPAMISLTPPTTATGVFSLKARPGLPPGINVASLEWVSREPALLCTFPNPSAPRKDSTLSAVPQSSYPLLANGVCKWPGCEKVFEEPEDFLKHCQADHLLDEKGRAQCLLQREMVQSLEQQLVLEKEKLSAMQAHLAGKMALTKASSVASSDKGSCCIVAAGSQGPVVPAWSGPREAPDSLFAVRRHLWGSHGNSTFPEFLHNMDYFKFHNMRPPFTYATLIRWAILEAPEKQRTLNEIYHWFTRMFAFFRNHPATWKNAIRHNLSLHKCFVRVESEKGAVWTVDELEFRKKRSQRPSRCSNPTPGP
Protocol: FIG. 14D depicts for the same BFPX-treated HEK293T cells transfected with AVI-TEV-FLAG-FOXP3 described in (FIG. 14C), TRIzol was used to extract genomic DNA. Briefly, for each aliquot of 0.25 million of cells, lyse and homogenize the sample in 200 μl TRIzol™ Reagent. Incubate for 5 minutes to permit complete dissociation of the nucleoproteins complex. 40 μl of chloroform was then added to the sample to incubate for 3 min. The sample was then centrifuged for 15 minutes at 12,000×g at 4° C. to separate into a lower red phenol/chloroform-interphase layer and a colorless upper aqueous phase. The upper aqueous phase was removed by pipetting. […] Run at 200V for 40 minutes on 4%-15% SDS-PAGE gel and analyzed by western blot (Transfer at 20V (40 mA) overnight, block in 2% BSA in PBS for 45 min, Primary antibody: 1:2000 anti-FLAG; room temperature, 2 hr; Secondary antibody: anti mouse light chain kappa 1:100,000; SuperSignal™ Western Blot Substrate Bundle, Femto).
TRIzol uses strong denaturing reagent (e.g. 4 M guanidine thiocyanate) to lyse the cells and completely dissociate nucleoprotein complexes. The extracted genomic DNA was then digested extensively with Benzonase and analyzed by SDS PAGE gel and western blot. […]

effect on the binding of NFAT1 to DNA (DNA binding by NFAT1)	FOXP3 co-extracted with genomic DNA under strong denaturing conditions [2]	Structure (SMILES)	precipitation of probe at highest probe concentration [1]
–	–	C#CCCC1(CCNC(=O)CCOCCOCCOCCC(=O)NCCNC(=O)CCCOc2c3occc3cc3ccc(=O)oc23)N=N1 [SPB-PEG3-AAD]	the probe precipitated out of solution
little or no effect	–	C#CCCC1(CCNC(=O)CCOCCOCCOCCOCCNC(=O)CCCOc2c3occc3cc3ccc(=O)oc23)N=N1 [SPB-PEG4-AAD, N-(2-(3-(but-3-yn-1-yl)-3H-diazirin-3-yl)ethyl)-1-(4-((7-oxo-7H-furo[3,2-g]chromen-9-yl)oxy)butanamido)-3,6,9,12-tetraoxapentadecan-15-amide]	–
little or no effect	showed FOXP3 proteins	C#CCCC1(CCNC(=O)CCCOc2c3occc3cc3ccc(=O)oc23)N=N1 [SPB-AAD, N-(2-(3-(but-3-yn-1-yl)-3H-diazirin-3-yl)ethyl)-4-((7-oxo-7H-furo[3,2-g]chromen-9-yl)oxy)butanamide]	precipitation of the probe in an aqueous solution

Source: patent US20250388597A1, “BIFUNCTIONAL PHOTOCROSSLINKING PROBES FOR COVALENT CAPTURE OF PROTEIN-NUCLEIC ACID COMPLEXES IN CELLS” (UNIVERSITY OF SOUTHERN CALIFORNIA, priority 2022, published 2025)
